Patent US20230203004A1, “RSV INHIBITING 3-SUBSTITUTED QUINOLINE AND CINNOLINE DERIVATIVES” (Janssen Sciences Ireland Unlimited Company, priority 2020, published 2023)
Read-outs that look alike come from different tables or passages of the source.

Key:
rgRSV224 virus = assay: Antiviral activity: rgRSV224 (GFP) replication in HeLa cells; format: cell-based, respiratory syncytial virus (RSV)
Procedure, shortened: (§1)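 HeLa cells infected with GFP-expressing rgRSV224 at MOI 1 in RPMI/10% FBS, 0.05% DMSO, with 9 serial 4-fold compound dilutions; 3 days at 37 °C, GFP read by laser microscopy for EC50. Cytotoxicity: uninfected HeLa cells, 3 days, cellular ATP (ATPlite) for CC50.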

HeLa cells = assay: Cytotoxicity in HeLa cells (ATP content, ATPlite kit); format: cell-based
Procedure, shortened: as §1

[1] = HeLa cells, rgRSV224 MOI = 1, GFP expression three days post-virus exposure; averaged data of several repeat experiments; read-out: RSV HELA EC50
[2] = HeLa cells, three days incubation, ATP content, averaged data of several repeat experiments, read-out: TOX HELA CC50
[3] = read-out: RSV HELA EC50; HeLa cells, rgRSV224 MOI = 1, GFP expression three days post-virus exposure; averaged data of several repeat experiments

Row | SMILES | EC50 (rgRSV224 virus; [1]) [µM] | CC50 (HeLa cells; [2]) [µM] | EC50 (rgRSV224 virus; [3]) [µM] | CC50 (HeLa cells; human, 3 days) [µM] | CC50 (HeLa cells) [µM]
1 | COc1cc(C(=O)NCC(O)(c2nc(-c3ccc(F)cc3)c(Cl)c(C(C)(C)O)c2F)C(F)(F)F)cc2cc(C)nnc12 (single isomer, unassigned; (+)) [compound 248, (+)-N-{2-[5-Chloro-3-Fluoro-6-(4-Fluorophenyl)-4-(2-Hydroxypropan-2-yl)Pyridin-2-yl]-3,3,3-Trifluoro-2-Hydroxypropyl}-8-Methoxv-3-Methylcinnoline-6-Carboxamide] | 0.5 | 41 |  |  | 
2 | COc1cc(C(=O)NCC(O)(c2cc(C(C)(C)O)c(F)c(-c3ccc(F)cc3)n2)C(F)F)cc2cc(C)cnc12 (single isomer, unassigned; (-)) [compound 204, (-)-N-{3,3-Difluoro-2-[5-Fluoro-6-(4-Fluorophenyl)-4-(2-Hydroxypropan-2-yl)Pyridin-2-yl]-2-Hydroxypropyl}-8-Methoxy-3-Methylquinoline-6-Carboxamide] |  |  | 0.001 | 48 | 
3 | COc1cc(C(=O)NCC(O)(c2cc(C(C)(C)O)c(F)c(-c3ccc(F)cc3)n2)C(F)F)cc2cc(C)c(F)nc12 (single isomer, unassigned; (-)) [compound 214, (-)-N-{3,3-Difluoro-2-[5-Fluoro-6-(4-Fluorophenyl)-4-(2-Hydroxypropan-2-yl)Pyridin-2-yl]-2-Hydroxypropyl}-2-Fluoro-8-Methoxy-3-Methylquinoline-6-Carboxamide] |  |  | 0.0014 | 28 | 
4 | COc1cc(C(=O)NCC(O)(c2cc(C(C)(C)O)c(Cl)c(-c3ccc(F)cc3)n2)C(C)C)cc2cc(C)nnc12 (single isomer, unassigned; (-)) [compound 231, (-)-N-{2-[5-Chloro-6-(4-Fluorophenyl)-4-(2-Hydroxypropan-2-yl)Pyridin-2-yl]-2-Hydroxy-3-Methylbutyl}-8-Methoxy-3-Methylcinnolme-6-Carboxamide] | 0.00041 | 21 |  |  | 
5 | COc1cc(C(=O)NCC(O)(c2cc(C(C)(C)O)c(F)c(-c3ccc(F)cc3)n2)C(F)F)cc2cc(C)nnc12 (single isomer, unassigned; (-)) [compound 250, (-)-N-{3,3-Difluoro-2-[5-Fluoro-6-(4-Fluorophenyl)-4-(2-Hydroxypropan-2-yl)Pyridin-2-yl]-2-Hydroxypropyl}-8-Methoxy-3-Methylcinnoline-6-Carboxamide] |  |  | 0.0014 | 40 | 
6 | COc1cc(C(=O)NCC(O)(c2cc(C(C)(C)O)c(F)c(-c3ccc(C(F)(F)F)cc3)n2)C2CC2)cc2cc(C)nnc12 (single isomer, unassigned; (-)) [compound 253] | 0.00025 | 13 |  |  | 
7 | COc1cc(C(=O)NCC(O)(c2cc(C(C)(C)O)c(F)c(-c3ccc(F)c(F)c3)n2)C2CC2)cc2cc(C)nnc12 (single isomer, unassigned; (-)) [compound 256] | 0.00019 | 33 |  |  | 
8 | Cc1cc2cc(C(=O)NCC(O)(c3nc(-c4ccc(F)cc4)c(F)c(C(C)(C)O)c3F)C(F)(F)F)cc(OC3CC3)c2nn1 (single isomer, unassigned; (-)) [compound 262, (-)(Cyclopropyloxy)-N-{2-[3,5-Difluoro-6-(4-Fluorophenyl)-4-(2-Hydroxypropan-2-yl)Pyridin-2-yl]-3,3,3-Trifluoro-2-Hydroxypropyl}-3-Methylcinnoline-6-Carboxamide] | 0.0019 | 45 |  |  | 
9 | Cc1cc2cc(C(=O)NCC(O)(c3nc(-c4ccc(F)cc4)c(Cl)c(C(C)(C)O)c3F)C(F)(F)F)cc(OC3CC3)c2nn1 (single isomer, unassigned; (-)) [compound 263] | 0.0027 | 47 |  |  | 
10 | COc1cc(C(=O)NC[C@@](O)(c2nc(-c3ccc(F)cc3)c(F)c(C(C)(C)O)c2C)C2CC2)cc2cc(C)nnc12 [compound 245] | 0.0029 |  |  |  | 48
11 | COc1cc(C(=O)NC[C@](O)(c2nc(-c3ccc(F)cc3)c(F)c(C(C)(C)O)c2C)C2CC2)cc2cc(C)nnc12 [compound 246] | 0.2 |  |  |  | 46
